In patent US12590099B2, “Inhibitors of histone deacetylase useful for the treatment or prevention of HIV infection” (Merck Sharp & Dohme LLC, priority 2018, dated 2026) one finds IC50 data, which are given here for 30 compounds.

Usually IC50 stands for the concentration that inhibits the measured activity by half.

One test deals with T1, HDAC6 (Homo sapiens, UniProt Q9UBN7).
T1 sequence (Q9UBN7 1-1215): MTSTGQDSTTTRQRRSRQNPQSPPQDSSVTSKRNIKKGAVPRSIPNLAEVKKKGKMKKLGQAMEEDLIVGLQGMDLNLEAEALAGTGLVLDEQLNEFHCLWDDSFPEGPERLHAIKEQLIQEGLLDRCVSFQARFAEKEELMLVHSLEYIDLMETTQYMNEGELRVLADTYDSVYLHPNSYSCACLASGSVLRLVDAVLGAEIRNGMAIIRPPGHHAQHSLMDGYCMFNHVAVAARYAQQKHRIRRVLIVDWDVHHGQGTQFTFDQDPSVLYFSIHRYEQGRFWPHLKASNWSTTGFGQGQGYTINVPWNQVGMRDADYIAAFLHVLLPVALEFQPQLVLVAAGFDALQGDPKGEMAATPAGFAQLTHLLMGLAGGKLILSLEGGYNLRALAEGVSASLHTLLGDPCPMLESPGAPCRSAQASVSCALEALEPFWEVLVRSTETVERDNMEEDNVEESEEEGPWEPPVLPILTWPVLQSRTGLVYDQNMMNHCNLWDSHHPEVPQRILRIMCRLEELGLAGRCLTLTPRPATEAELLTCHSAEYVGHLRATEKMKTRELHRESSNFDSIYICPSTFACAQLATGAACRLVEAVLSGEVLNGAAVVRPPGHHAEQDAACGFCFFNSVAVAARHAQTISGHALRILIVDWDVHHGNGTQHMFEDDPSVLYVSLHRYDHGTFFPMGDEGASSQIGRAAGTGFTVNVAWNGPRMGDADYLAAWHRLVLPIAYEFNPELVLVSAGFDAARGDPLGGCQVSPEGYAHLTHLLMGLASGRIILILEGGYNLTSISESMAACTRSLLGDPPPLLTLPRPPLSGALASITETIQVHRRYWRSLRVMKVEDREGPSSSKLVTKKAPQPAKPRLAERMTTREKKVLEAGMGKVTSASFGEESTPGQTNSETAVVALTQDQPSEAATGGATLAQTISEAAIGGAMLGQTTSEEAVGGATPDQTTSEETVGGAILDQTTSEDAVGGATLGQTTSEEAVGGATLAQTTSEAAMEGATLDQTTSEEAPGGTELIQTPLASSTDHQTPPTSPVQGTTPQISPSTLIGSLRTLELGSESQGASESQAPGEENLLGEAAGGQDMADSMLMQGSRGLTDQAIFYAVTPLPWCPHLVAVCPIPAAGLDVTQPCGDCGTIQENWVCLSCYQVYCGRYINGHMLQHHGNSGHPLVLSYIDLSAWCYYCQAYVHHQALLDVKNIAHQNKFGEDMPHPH
The test can be described thus: Human HDAC enzyme inhibitor Fluor-de-Lys assay, HDAC6. The class given is biochemical.

The target in another test is T2, Recombinant human HDAC8 (Homo sapiens, UniProt Q9BY41).
T2 construct: purchased Enzo Life Sciences BML-SE145-0100
T2 sequence (Q9BY41 1-377): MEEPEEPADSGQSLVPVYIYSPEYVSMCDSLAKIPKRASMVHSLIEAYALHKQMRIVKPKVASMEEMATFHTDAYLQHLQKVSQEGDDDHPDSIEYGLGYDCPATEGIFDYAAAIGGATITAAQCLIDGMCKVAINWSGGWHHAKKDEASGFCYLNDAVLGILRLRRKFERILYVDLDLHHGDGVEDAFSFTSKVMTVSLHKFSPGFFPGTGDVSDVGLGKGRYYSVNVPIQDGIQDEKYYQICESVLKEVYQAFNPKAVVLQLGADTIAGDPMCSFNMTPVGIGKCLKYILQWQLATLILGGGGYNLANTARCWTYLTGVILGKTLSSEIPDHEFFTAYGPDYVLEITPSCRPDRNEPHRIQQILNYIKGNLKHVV
Description: Human HDAC enzyme inhibitor Fluor-de-Lys assay, HDAC8. The test is classed as biochemical.

As to `CCC(=O)CCCCC[C@H](NC(=O)[C@@]1(C)CC12CCN(C(C)C)CC2)c1ncc(-c2ccc3nc(C)ccc3c2)[nH]1` (single isomer, unassigned) [Compound 151, (1S or 1R)-1-methyl-6-(1-methylethyl)-N-{(1S)-1-[5-(2-methylquinolin-6-yl)-1H-imidazol-2-yl]-7-oxononyl}-6-azaspiro[2.5]octane-1-carboxamide], the half-maximal inhibitory concentration (IC50) against HDAC6 is 5.82 µM; on Recombinant human HDAC8, 3.18 µM.

Take `CCC(=O)CCCCC[C@H](NC(=O)[C@H]1CC12CCN(C)CC2)c1ncc(-c2ccc3ncc(Cl)cc3c2)[nH]1` [Compound 140]: the IC50 against HDAC6 was found to be 0.611 µM; on Recombinant human HDAC8 it was 4.11 µM.

For `CCC(=O)CCCCC[C@H](NC(=O)[C@H]1CC12CCN(CC)CC2)c1ncc(-c2ccc3c(=O)n(C(C)C)ccc3c2)[nH]1` [Compound 126], the IC50 at HDAC6 came out at 18.1 µM; at Recombinant human HDAC8, 6.48 µM.

Regarding `CCC(=O)CCCCC[C@H](NC(=O)C1CC12CCN(C)C(C)(C)C2)c1ncc(-c2ccc3nc(C)ccc3c2)[nH]1` (single isomer, unassigned) [Compound 133], the IC50 on HDAC6 is 0.879 µM; at Recombinant human HDAC8 it was 2.06 µM.

As for `CCC(=O)CCCCC[C@H](N)c1ncc(-c2ccc3nc(C)ccc3c2)[nH]1` [Compound 178], the IC50 is over 45 µM on HDAC6 and 3.26 µM at Recombinant human HDAC8.

As to `CCC(=O)CCCCC[C@H](NC(=O)[C@H]1CC12CCN(C)CC2)c1ncc(-c2cc3ccccc3nc2OC)o1` [Compound 77], the values for the IC50 at HDAC6 and at Recombinant human HDAC8 were 0.198 µM and 21.7 µM, respectively.

Take `CN1CCC2(CC1)C[C@@H]2C(=O)N[C@@H](CCCCCC(=O)CC(F)(F)F)c1ncc(-c2ccc(F)cc2)[nH]1` [Compound 68]: the IC50 was determined as 6.81 µM on HDAC6 and 4.41 µM on Recombinant human HDAC8.

Regarding `CCC(=O)CCCCC[C@H](NC(=O)C1(C)CC12CCN(C(C)C)CC2)c1ncc(-c2ccc3nc(C)ccc3c2)[nH]1` (single isomer, unassigned) [Compound 152, (1S or 1R)-1-methyl-6-(1-methylethyl)-N-{(1S)-1-[5-(2-methylquinolin-6-yl)-1H-imidazol-2-yl]-7-oxononyl}-6-azaspiro[2.5]octane-1-carboxamide], the IC50 against HDAC6 was found to be 19.2 µM; at Recombinant human HDAC8 it was 5.06 µM.

Regarding `CCC(=O)CCCCC[C@H](NC(=O)[C@H]1CC12CCN(C)CC2)c1ncc(-c2ccc3c(ccc(=O)n3C)c2)o1` [Compound 109], the IC50 is 13.4 µM at HDAC6 and over 15 µM at Recombinant human HDAC8.

Regarding `CCN1CCC2(CC1)C[C@@H]2C(=O)N[C@@H](CCCCCC(=O)CC1CC1)c1ncc(-c2ccc(F)cc2)[nH]1` [Compound 201], the values for the IC50 on HDAC6 and on Recombinant human HDAC8 were 35.8 µM and 14.2 µM, respectively.

Regarding `CCC(=O)CCCCC[C@H](NC(=O)[C@H]1CC12CCN(CC)CC2)c1ncc(-c2ccc3c(=O)n(CC)ccc3c2)o1` [Compound 162], the IC50 on HDAC6 was 6.53 µM; at Recombinant human HDAC8, over 45 µM.

Regarding `COc1cc2nc(C)ccc2cc1-c1cnc([C@H](CCCCCC(=O)CC2CCC2)NC(=O)[C@H]2CC23CCN(C)CC3)o1` [Compound 185], the IC50 at HDAC6 was 36.4 µM; at Recombinant human HDAC8 it was over 45 µM.

As to `CCC(=O)CCCCC[C@H](NC(=O)[C@H]1CC12CCN(CC)CC2)c1ncc(-c2ccc3nc(C4CC4)ccc3c2)[nH]1` [Compound 101], the IC50 was determined as 7.37 µM on HDAC6 and 6.65 µM at Recombinant human HDAC8.

With `CCC(=O)CCCCC[C@H](NC(=O)C1(CC(C)C)CC2(CN(C)C2)C1)c1ncc(-c2ccc3nc(C)ccc3c2)[nH]1` [Compound 157], the results for the IC50 against HDAC6 and at Recombinant human HDAC8 were 8.53 µM and 4.18 µM, respectively.

In the case of `CCC(=O)CCCCC[C@H](NC(=O)[C@H]1CC[C@]2(CC1)OC(=O)c1cccnc12)c1ncc(-c2ccc3nc(C4CC4)ccc3c2)o1` [Compound 123], the IC50 against HDAC6 and on Recombinant human HDAC8 was over 15 µM each time.

Regarding `CCC(=O)CCCCC[C@H](NC(=O)C1CCC2(CC1)CN(C)C2)c1ncc(-c2ccc3nn(C)cc3c2)[nH]1` [Compound 156], the IC50 against HDAC6 was determined as 7.53 µM; at Recombinant human HDAC8, 5.83 µM.

As for `CCN1CCC2(CC1)C[C@@H]2C(=O)N[C@@H](CCCCCC(=O)CC1CCC1)c1ncc(-c2cc3ccc(C)nc3cc2OC)o1` [Compound 184], the IC50 against HDAC6 was 9.28 µM; on Recombinant human HDAC8, over 45 µM.

In the case of `CCC(=O)CCCCC[C@H](NC(=O)[C@H]1CC12CCN(C)CC2)c1ncc(-c2cc3ccc(=O)n(C)c3cc2OC)o1` [Compound 198], the concentration for half-maximal inhibition (IC50) on HDAC6 was 0.426 µM; on Recombinant human HDAC8, over 0.9 µM.

Regarding `CCC(=O)CCCCC[C@H](NC(=O)C1=NOC2(CCN(C)CC2)C1)c1ncc(-c2cc3ccc(C)nc3cc2OC)o1` [Compound 196], the IC50 against HDAC6 is 0.759 µM; at Recombinant human HDAC8 it was over 0.9 µM.

Turning to `CCC(=O)CCCCC[C@H](NC(=O)C1=NOC2(CCN(C(C)C)CC2)C1)c1ncc(-c2ccc3nc(C4CC4)ccc3c2)o1` [Compound 136], the IC50 was over 4.5 µM on HDAC6 and 4.8 µM on Recombinant human HDAC8.

Turning to `CCC(=O)CCCCC[C@H](NC(=O)[C@H]1CC12CCN(C)CC2)c1ncc(-c2cnc3cccnc3c2)[nH]1` [Compound 67], the results for the IC50 at HDAC6 and at Recombinant human HDAC8 were 1.28 µM and 2.59 µM, respectively.

On to `C=CCN1CCC2(CC1)C[C@@H]2C(=O)N[C@@H](CCCCCC(=O)CC)c1ncc(-c2ccc3c(c2)C2CCC3N2CC=C)[nH]1` (stereo partly drawn) [Compound 179, (1S)—N-{(1S)-7-oxo-1-[5-(9-prop-2-en-1-yl-1,2,3,4-tetrahydro-1,4-epiminonaphthalen-6-yl)-1H-imidazol-2-yl]nonyl}-6-prop-2-en-1-yl-6-azaspiro[2.5]octane-1-carboxamide], for which the IC50 was determined as 9.53 µM against HDAC6 and 8.66 µM on Recombinant human HDAC8.

Take `CCC(=O)CCCCC[C@H](NC(=O)C1=NOC2(CCN(C(C)C)CC2)C1)c1ncc(-c2cc3ccccc3nc2OC)[nH]1` [Compound 106, N-{(1S)-1-[5-(2-methoxyquinolin-3-yl)-1H-imidazol-2-yl]-7-oxononyl}-8-(1-methylethyl)-1-oxa-2,8-diazaspiro[4.5]dec-2-ene-3-carboxamide]: the values for the IC50 at HDAC6 and at Recombinant human HDAC8 were 1.46 µM and 2.78 µM, respectively.

As for `CCC(=O)CCCCC[C@H](NC(=O)[C@H]1CC12CCN(CC1CC1)CC2)c1ncc(-c2ccc3nc(C4CC4)ccc3c2)[nH]1` [Compound 104], the figures for the half-maximal inhibitory concentration (IC50) on HDAC6 and on Recombinant human HDAC8 were 5.3 µM and 5.02 µM, respectively.

`CCC(=O)CCCCC[C@H](NC(=O)[C@H]1CC[C@]2(CC1)OC(=O)c1ncccc12)c1ncc(-c2cc3ccccc3nc2OC)[nH]1` [Compound 141]: the concentration for half-maximal inhibition (IC50) on HDAC6 was 1.49 µM; on Recombinant human HDAC8, 2.11 µM.

As for `CCC(=O)CCCCC[C@H](NC(=O)[C@H]1CC12CCN(C)CC2)c1ncc(-c2ccc3nc(CC)sc3c2)[nH]1` [Compound 149], the IC50 turned out to be 3.66 µM on HDAC6 and 2.72 µM at Recombinant human HDAC8.

Take `CCC(=O)CCCCC[C@H](NC(=O)[C@H]1CC12CCN(C)CC2)c1ncc(-c2cc(OC)ncc2F)o1` [Compound 220]: the IC50 on HDAC6 and at Recombinant human HDAC8 was over 0.9 µM in each case.

Turning to `CCC(=O)CCCCC[C@H](NC(=O)[C@H]1CC12CCN(C)CC2)c1ncc(-c2cc(OC)c3ccccc3n2)[nH]1` [Compound 170], the IC50 against HDAC6 is 0.923 µM; on Recombinant human HDAC8, 0.835 µM.

On to `CCN1CCC2(CC1)C[C@@H]2C(=O)N[C@@H](CCCCCC(=O)CC1CC1)c1ncc(-c2cc3ccc(C)nc3cc2OC)[nH]1` [Compound 165], for which the IC50 on HDAC6 amounted to 11.9 µM; at Recombinant human HDAC8, 14.7 µM.

Regarding `CCC(=O)CCCCC[C@H](NC(=O)[C@H]1CC12CCN(C)CC2)c1ncc(-c2ccc3nc(C4CC4)sc3c2)[nH]1` [Compound 146], the half-maximal inhibitory concentration (IC50) against HDAC6 was determined as 7.73 µM; at Recombinant human HDAC8, 7.71 µM.
